Test results: ChEMBL document CHEMBL1240454, “1,3-Dioxolane-based ligands incorporating a lactam or imide moiety: structure-affinity/activity relationship at alpha1-adrenoceptor subtypes and at 5-HT1A receptors” (Eur J Med Chem, 2010)

Legend:
[1] = target: T1, Alpha-1A adrenergic receptor (Rattus norvegicus) (UniProt P43140); test: Antagonist activity at adrenergic alpha1A receptor in Wistar rat prostatic vas deferens assessed as inhibition of (-)-noradrenaline-induced tissue contraction treated 30 mins before (-)noradrenalin challenge; format: functional, tissue-based
T1 sequence (whole entry): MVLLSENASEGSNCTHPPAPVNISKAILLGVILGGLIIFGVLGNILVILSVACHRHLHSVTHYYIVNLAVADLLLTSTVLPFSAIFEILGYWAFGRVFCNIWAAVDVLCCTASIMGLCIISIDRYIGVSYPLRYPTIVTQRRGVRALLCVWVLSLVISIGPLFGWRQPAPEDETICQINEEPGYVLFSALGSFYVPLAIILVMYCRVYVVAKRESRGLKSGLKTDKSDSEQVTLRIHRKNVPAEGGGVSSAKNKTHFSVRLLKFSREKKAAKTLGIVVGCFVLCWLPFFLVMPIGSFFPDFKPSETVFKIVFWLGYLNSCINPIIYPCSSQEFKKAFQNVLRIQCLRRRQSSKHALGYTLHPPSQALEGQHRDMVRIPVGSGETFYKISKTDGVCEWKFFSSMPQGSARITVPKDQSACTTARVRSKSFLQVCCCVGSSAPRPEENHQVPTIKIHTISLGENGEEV

[2] = target: T2, Alpha-1B adrenergic receptor (Homo sapiens, UniProt P35368)
T2 sequence (P35368 whole entry): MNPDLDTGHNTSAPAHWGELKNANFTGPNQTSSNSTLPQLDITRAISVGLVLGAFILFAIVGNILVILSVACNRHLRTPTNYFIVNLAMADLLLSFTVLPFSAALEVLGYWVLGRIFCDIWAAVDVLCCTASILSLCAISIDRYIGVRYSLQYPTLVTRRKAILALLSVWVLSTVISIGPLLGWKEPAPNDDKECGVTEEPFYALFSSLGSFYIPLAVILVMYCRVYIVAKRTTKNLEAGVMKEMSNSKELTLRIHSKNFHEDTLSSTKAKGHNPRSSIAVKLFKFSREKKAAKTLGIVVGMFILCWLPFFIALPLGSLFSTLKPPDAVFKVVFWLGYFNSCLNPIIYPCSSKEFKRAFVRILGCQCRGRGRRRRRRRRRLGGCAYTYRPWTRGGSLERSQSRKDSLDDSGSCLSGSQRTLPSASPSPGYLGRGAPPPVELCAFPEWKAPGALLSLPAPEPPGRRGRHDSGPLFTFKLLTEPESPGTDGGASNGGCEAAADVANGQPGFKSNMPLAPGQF
Description: Displacement [3H]prazosin of human recombinant Alpha-1B adrenergic receptor expressed in CHO cells by rapid filtration technique

[3] = target: T3, 5-hydroxytryptamine receptor 1A (Homo sapiens) (UniProt P08908); test: Agonist activity at human cloned 5HT1A receptor expressed in human HeLa cells assessed as stimulation of [35S]GTPgammaS binding after 20 mins by liquid scintillation counting relative to maximal 5HT response; format: functional, cell-based
T3 sequence (whole entry): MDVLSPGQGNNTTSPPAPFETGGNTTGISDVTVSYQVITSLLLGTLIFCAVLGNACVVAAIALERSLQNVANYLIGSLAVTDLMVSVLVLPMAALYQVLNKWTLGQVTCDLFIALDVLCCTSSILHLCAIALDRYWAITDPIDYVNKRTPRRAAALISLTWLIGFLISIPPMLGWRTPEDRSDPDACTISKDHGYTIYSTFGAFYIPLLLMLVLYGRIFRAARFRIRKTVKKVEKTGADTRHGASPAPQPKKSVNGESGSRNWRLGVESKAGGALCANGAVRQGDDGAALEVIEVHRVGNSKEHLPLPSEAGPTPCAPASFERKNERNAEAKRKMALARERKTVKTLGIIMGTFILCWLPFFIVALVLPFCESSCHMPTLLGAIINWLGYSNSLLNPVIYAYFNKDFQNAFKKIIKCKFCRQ

Rattus norvegicus = organism: Rattus norvegicus; test: Selectivity for adrenergic Alpha-1B receptor in Wistar rat spleen over adrenergic alpha1D receptor in Wistar rat thoracic aorta; format: tissue-based
[4] = target: T3, 5-hydroxytryptamine receptor 1A (Homo sapiens); test: Agonist activity at human cloned 5HT1A receptor expressed in human HeLa cells assessed as stimulation of [35S]GTPgammaS binding after 20 mins by liquid scintillation counting; format: functional, cell-based
[5] = target: T4, 5-hydroxytryptamine receptor 1A (Homo sapiens, UniProt P08908); test: Binding affinity to 5HT1A receptor
T4 sequence (P08908 whole entry): T3 sequence (whole entry)

[6] = Selectivity for adrenergic alpha1 receptor over 5HT1A receptor
[7] = target: T3, 5-hydroxytryptamine receptor 1A (Homo sapiens); conditions: HeLa

| Compound | pKb [1] | Ki [2] | Emax [3] | pD2 [4] | Ki [5] | Selectivity ratio [6] | pKb [7] | Selectivity ratio (Rattus norvegicus) |
| --- | --- | --- | --- | --- | --- | --- | --- | --- |
| COc1ccccc1N1CCN(CC2OCC(c3ccccc3)(c3ccccc3)O2)CC1 (centres undefined) | 8.24 | 6.76 nM | 16% | 8.3 | 15.1 nM | 100 |  | 28 |
| COc1ccccc1N1CCN(C[C@H]2CO[C@@](CN3CCCCC3=O)(c3ccccc3)O2)CC1 | 7.3 | 129 nM |  |  |  |  | 7.38 | 0.06 |
| COc1ccccc1N1CCN(C[C@H]2CO[C@@](CN3C(=O)CC4(CCCC4)CC3=O)(c3ccccc3)O2)CC1 (relative stereo) | 7.72 | 9.33 nM | 49% | 7.8 |  |  |  | 0.2 |
| COc1ccccc1N1CCN(C[C@H]2CO[C@](CN3CCCC3=O)(c3ccccc3)O2)CC1 (relative stereo) | 7.94 | 174 nM |  |  |  |  | 7.16 | 0.03 |
| COc1ccccc1N1CCN(C[C@@H]2CO[C@@](CN3C(=O)CCC3=O)(c3ccccc3)O2)CC1 (relative stereo) | 7.32 | 224 nM |  |  |  |  |  | 5 |
| COc1ccccc1N1CCN(C[C@@H]2CO[C@@](CN3C(=O)CCCC3=O)(c3ccccc3)O2)CC1 (relative stereo) | 7.36 | 132 nM |  |  |  |  |  | 2 |

The remaining compounds from weak to strong by Ki [2], led by results:

| pKb [1] | Ki [2] | Emax [3] | pD2 [4] | Ki [5] | Selectivity ratio [6] | pKb [7] | Compound | Selectivity ratio (Rattus norvegicus) |
| --- | --- | --- | --- | --- | --- | --- | --- | --- |
| 7.45 | 85.1 nM | 45% | 7.05 |  |  |  | COc1ccccc1N1CCN(C[C@H]2CO[C@@](CN3C(=O)CCC3=O)(c3ccccc3)O2)CC1 (relative stereo) | 0.2 |
| 8.97 | 72.4 nM |  |  |  |  | 7.25 | COc1ccccc1N1CCN(C[C@H]2CO[C@@](CN3CCCCCC3=O)(c3ccccc3)O2)CC1 (relative stereo) | 0.1 |
| 7.34 | 70.8 nM | 34% | 7.14 |  |  |  | COc1ccccc1N1CCN(C[C@@H]2CO[C@](CN3CCCC3=O)(c3ccccc3)O2)CC1 (relative stereo) | 0.1 |
| 7.32 | 51.3 nM |  |  |  |  | 7.39 | COc1ccccc1N1CCN(C[C@@H]2CO[C@@](CN3CCCCC3=O)(c3ccccc3)O2)CC1 (relative stereo) | 0.1 |
| 7.09 | 46.8 nM | 34% | 7.23 |  |  |  | COc1ccccc1N1CCN(C[C@H]2CO[C@@](CN3C(=O)CCCC3=O)(c3ccccc3)O2)CC1 (relative stereo) | 0.1 |
| 7.18 | 18.2 nM | 39% | 6.57 |  |  |  | COc1ccccc1N1CCN(C[C@@H]2CO[C@@](CN3CCCCCC3=O)(c3ccccc3)O2)CC1 (relative stereo) | 0.5 |
| 7.29 | 10 nM | 60% | 7.98 |  |  |  | COc1ccccc1N1CCN(C[C@@H]2CO[C@@](CN3C(=O)CC4(CCCC4)CC3=O)(c3ccccc3)O2)CC1 (relative stereo) | 11 |
